Literature values in patent publication US20220313772A1, “Method of Treating a Child with Central Precocious Puberty using an Extended Release Composition” (Tolmar International Limited, priority 2019, published 2022).

Details: in vivo

With `CCNC(=O)[C@@H]1CCCN1C(=O)[C@H](CCCNC(=N)N)NC(=O)[C@H](CC(C)C)NC(=O)[C@@H](CC(C)C)NC(=O)[C@H](Cc1ccc(O)cc1)NC(=O)[C@H](CO)NC(=O)[C@H](Cc1c[nH]c2ccccc12)NC(=O)[C@H](Cc1c[nH]cn1)NC(=O)[C@@H]1CCC(=O)N1` [Leuprolide acetate, leuprolide acetate] as the compound, how does the “adverse effects at high dose” value read?
Its value is “no adverse effects differing from those observed with a 1 mg/day dose”.
